Several values for one entry are separate records, joined by “and”; a condition that tells them apart may be missing. Equal values may be shown once. Read-outs that look alike come from different tables or passages of the source.
Columns and labels:
Format in all cases: in vivo, Meloidogyne incognita
M. incognita [1] = experiment: Example 4: nematode control by tomato seed treatment, root galling (index adapted from Zeck); conditions: for Efficacy (%) / germination of treated seeds: tomato seeds; for Efficacy (%): Methiocarb FS500, Thiodicarb DS, inoculated 14 days after sowing, galling 28 days after inoculation; for germination of treated seeds: FS500 formulation; for average rating (gall rating, score 0.1-7): tomato, untreated control 4.3
M. incognita [2] = conditions: for Efficacy (%): DS formulation, inoculated 14 days after sowing, galling 28 days after inoculation; for average rating (gall rating, score 0.1-7): tomato, untreated control 4.1
M. incognita [3] = conditions: for Efficacy (%): DS formulation, inoculated 14 days after sowing, galling 28 days after inoculation; for average rating (gall rating, score 0.1-7): tomato, untreated control 4.6
M. incognita [4] = experiment: Example 1: nematode control by tomato seed treatment, root galling (index adapted from Zeck), two exposure timings; conditions: for Efficacy (%) at the two-week exposure / Efficacy (%) at the four-week exposure: tomato seeds, DS formulation, galling 28 days after inoculation; for Efficacy (%) at the two-week exposure: inoculated 14 days after sowing, 6000 eggs; for Efficacy (%) at the four-week exposure: inoculated 28 days after sowing, 9000 eggs; for average rating (gall rating, score 0.1-7): tomato
M. incognita [5] = experiment: Example 6: nematode control by cotton seed treatment, root galling (index adapted from Zeck); conditions: for Efficacy (%): cotton seeds, DS formulation, inoculated 14 days after sowing, galling 28 days after inoculation; for average rating (gall rating, score 0.1-7): cotton, untreated control 2.0
Meloidogyne spp. = experiment: General statement of effectiveness against nematodes by plant propagation material treatment
M. incognita [6] = experiment: Example 5: nematode control by tomato seed treatment, root galling (index adapted from Zeck); conditions: for Efficacy (%): tomato seeds, DS formulation, inoculated 14 days after sowing, galling 28 days after inoculation
[7] = tomato seeds, 0.01 mg a.i./seed
[8] = tomato seeds, 0.03 mg a.i./seed
[9] = 1 mg a.i./seed, inoculated at 14 days after sowing, untreated control 3.5
[10] = 1 mg a.i./seed, inoculated at 28 days after sowing, untreated control 2.9

With `CNC(=O)Oc1cc(C)c(SC)c(C)c1` [Methiocarb] the “Efficacy (%)” value (M. incognita [1]; 0.01 mg a.i./seed) was 3.8%, the “Efficacy (%)” value (M. incognita [1]; 0.03 mg a.i./seed) was 3.8% and the “Efficacy (%)” value (M. incognita [1]; 0.1 mg a.i./seed) was 1.9%. For the same compound, the “germination of treated seeds” value (M. incognita [1]; 0.3 mg /seed) was “only 1 seed out of 6 germinated”, the “Efficacy (%)” value (M. incognita [1]; 0.3 mg a.i./seed) was 0% and the “germination of treated seeds” value (M. incognita [1]; 1 mg a.i./seed) was “did not germinate”. The “average rating (gall rating, score 0.1-7)” value (“average rating” for short) (M. incognita [1]; 0.1 mg /seed) was 4.3 and the “average rating” value (M. incognita [1]; 0.3 mg /seed, only one germinated plant) was 4.5.
`CNC(=O)CSP(=S)(OC)OC` [Dimethoate] was tested, and the “Efficacy (%)” value (M. incognita [2]; [7]) was 0%, the “Efficacy (%)” value (M. incognita [2]; [8]) was 2.0% and the “Efficacy (%)” value (M. incognita [2]; tomato seeds, 0.1 mg a.i./seed) was 2.0%. For the same compound, the “Efficacy (%)” value (M. incognita [2]; tomato seeds, 0.3 mg a.i./seed) was 0%, the “Efficacy (%)” value (M. incognita [2]; tomato seeds, 1 mg a.i./seed) was 0% and the “average rating” value (M. incognita [2]; 1 mg /seed) was 4.3.
In the case of `CCCSP(=O)(OCC)SCCC` [Ethoprofos, Ethoprophos], the “germination of treated seeds” value (M. incognita [3]; tomato seeds, 1 mg a.i./seed) is reported as “did not germinate”, the “Efficacy (%)” value (M. incognita [3]; [8]) is reported as 4.0% and the “Efficacy (%)” value (M. incognita [3]; tomato seeds, 0.1 mg a.i./seed) is reported as 2.2%. The “Efficacy (%)” value (M. incognita [3]; tomato seeds, 0.3 mg a.i./seed) was 2.2% and the “average rating” value (M. incognita [3]; 0.3 mg /seed) was 4.5.
For `CNC(=O)O/N=C(\SC)C(=O)N(C)C` [Oxamyl], the “Efficacy (%) at the two-week exposure” value (M. incognita [4]; 0.03 mg a.i./seed) was 7.1%, the “Efficacy (%) at the four-week exposure” value (M. incognita [4]; 0.03 mg a.i./seed) was 0% and the “Efficacy (%) at the two-week exposure” value (M. incognita [4]; 0.1 mg a.i./seed) was 0%. The “Efficacy (%) at the four-week exposure” value (M. incognita [4]; 0.1 mg a.i./seed) was 2.9%, the “Efficacy (%) at the two-week exposure” value (M. incognita [4]; 0.3 mg a.i./seed) was 0% and the “Efficacy (%) at the four-week exposure” value (M. incognita [4]; 0.3 mg a.i./seed) was 0%. The “Efficacy (%) at the two-week exposure” value (M. incognita [4]; 1 mg a.i./seed) was 0%, the “Efficacy (%) at the four-week exposure” value (M. incognita [4]; 1 mg a.i./seed) was 4.5% and the “average rating” value (M. incognita [4]; [9]) was 3.5. The “average rating” value (M. incognita [4]; [10]) was 2.8.
With `CCOP(=S)(OCC)Oc1ccc(Cl)cc1Cl` [Dichlofenthion] the “Efficacy (%)” value (M. incognita [2]; [7]) was 0%, the “Efficacy (%)” value (M. incognita [2]; [8]) was 0% and the “Efficacy (%)” value (M. incognita [2]; tomato seeds, 0.1 mg a.i./seed) was 0%. The “Efficacy (%)” value (M. incognita [2]; tomato seeds, 0.3 mg a.i./seed) was 0%, the “Efficacy (%)” value (M. incognita [2]; tomato seeds, 1 mg a.i./seed) was 0% and the “average rating” value (M. incognita [2]; 1 mg /seed) was 4.7.
In the case of `CS/C(C)=N\OC(=O)N(C)SN(C)C(=O)O/N=C(\C)SC` [Thiodicarb], the “Efficacy (%)” value (M. incognita [1]; 0.03 mg a.i./seed) is reported as 0%, the “Efficacy (%)” value (M. incognita [1]; 0.1 mg a.i./seed) is reported as 0% and the “Efficacy (%)” value (M. incognita [1]; 0.3 mg a.i./seed) is reported as 0%. The “Efficacy (%)” value (M. incognita [1]; 1 mg a.i./seed) was 1.9% and the “average rating” value (M. incognita [1]; 1 mg a.i./seed) was 4.3.
For `CCOP(=O)(SC(C)CC)SC(C)CC` (stereo not drawn) [Cadusafos], the “Efficacy (%)” value (M. incognita [5]; 0.01 mg a.i./seed) was 0%, the “Efficacy (%)” value (M. incognita [5]; 0.03 mg a.i./seed) was 0% and the “Efficacy (%)” value (M. incognita [5]; 0.1 mg a.i./seed) was 8.3%. For the same compound, the “Efficacy (%)” value (M. incognita [5]; 0.3 mg a.i./seed) was 77.5%, the “Efficacy (%)” value (M. incognita [5]; 1 mg a.i./seed) was 86.7% and the “average rating” value (M. incognita [5]; 0.3 mg /seed) was 0.5. For the same compound, the “average rating” value (M. incognita [5]; 1 mg a.i./seed) was 0.3, the “germination of treated seeds” value (M. incognita [2]; tomato seeds, 1 mg a.i./seed) was “did not germinate” and the “Efficacy (%)” value (M. incognita [2]; [7]) was 0%. For the same compound, the “Efficacy (%)” value (M. incognita [2]; [8]) was 0%, the “Efficacy (%)” value (M. incognita [2]; tomato seeds, 0.1 mg a.i./seed) was 2.0% and the “Efficacy (%)” value (M. incognita [2]; tomato seeds, 0.3 mg a.i./seed) was 14.3%. For the same compound, the “average rating” value (M. incognita [2]; 0.3 mg /seed) was 3.5 and the “effective against Meloidogyne spp., for example, Meloidogyne incognita” value (“effective … Meloidogyne incognita” for short) (Meloidogyne spp.) was “effective”.
For `CCOP(=S)(OCC)Oc1nc(Cl)n(C(C)C)n1` [Isazofos], the “effective … Meloidogyne incognita” value (Meloidogyne spp.) was “effective”, the “Efficacy (%)” value (M. incognita [3]; [8]) was 4.0% and the “Efficacy (%)” value (M. incognita [3]; tomato seeds, 0.1 mg a.i./seed) was 2.2%. For the same compound, the “Efficacy (%)” value (M. incognita [3]; tomato seeds, 0.3 mg a.i./seed) was 34.8%, the “Efficacy (%)” value (M. incognita [3]; tomato seeds, 1 mg a.i./seed) was 87.0% and the “average rating” value (M. incognita [3]; 1 mg /seed) was 0.6.
For `CCOP(=S)(OCC)Oc1cc(C)nc(C(C)C)n1` [Diazinon], the “Efficacy (%)” value (M. incognita [2]; [7]) was 0%, the “Efficacy (%)” value (M. incognita [2]; [8]) was 0% and the “Efficacy (%)” value (M. incognita [2]; tomato seeds, 0.1 mg a.i./seed) was 0%. The “Efficacy (%)” value (M. incognita [2]; tomato seeds, 0.3 mg a.i./seed) was 0%, the “Efficacy (%)” value (M. incognita [2]; tomato seeds, 1 mg a.i./seed) was 0% and the “average rating” value (M. incognita [2]; 1 mg /seed) was 4.2.
With `CCN(CC)C(=O)C(Cl)=C(C)OP(=O)(OC)OC` [Phosphamidon] the “Efficacy (%)” value (M. incognita [2]; [7]) was 0%, the “Efficacy (%)” value (M. incognita [2]; [8]) was 2.0% and the “Efficacy (%)” value (M. incognita [2]; tomato seeds, 0.1 mg a.i./seed) was 0%. For the same compound, the “Efficacy (%)” value (M. incognita [2]; tomato seeds, 0.3 mg a.i./seed) was 0%, the “Efficacy (%)” value (M. incognita [2]; tomato seeds, 1 mg a.i./seed) was 0% and the “average rating” value (M. incognita [2]; 1 mg /seed) was 4.1.
For `CCCCNC(=O)n1c(NC(=O)OC)nc2ccccc21` [Benomyl], the “Efficacy (%)” value (M. incognita [6]; 0.1 mg a.i./seed) was 0%, the “Efficacy (%)” value (M. incognita [6]; 0.3 mg a.i./seed) was 2.0% and the “Efficacy (%)” value (M. incognita [6]; 1 mg a.i./seed) was 0%. The “average rating” value (M. incognita [6]; tomato, 1 mg a.i./seed, untreated control 4.2) was “The untreated control plants have an average rating of 4.2. Benomyl at 1 mg a.i. /seed is also rated at 4.2”.
With `CCOP(=S)(OCC)Oc1ccc([S+](C)[O-])cc1` (stereo not drawn) [Fensulfothion] the “Efficacy (%)” value (M. incognita [2]; [7]) was 0%, the “Efficacy (%)” value (M. incognita [2]; [8]) was 2.0% and the “Efficacy (%)” value (M. incognita [2]; tomato seeds, 0.1 mg a.i./seed) was 0%. The “Efficacy (%)” value (M. incognita [2]; tomato seeds, 0.3 mg a.i./seed) was 0%, the “Efficacy (%)” value (M. incognita [2]; tomato seeds, 1 mg a.i./seed) was 20.4% and the “average rating” value (M. incognita [2]; 1 mg /seed) was 3.3. For the same compound, the “effective … Meloidogyne incognita” value (Meloidogyne spp.) was “effective”.
With `CCOP(=S)(OCC)SCSCC` [Phorate] the “Efficacy (%)” value (M. incognita [3]; [8]) was 22.1%, the “Efficacy (%)” value (M. incognita [3]; tomato seeds, 0.1 mg a.i./seed) was 2.2% and the “Efficacy (%)” value (M. incognita [3]; tomato seeds, 0.3 mg a.i./seed) was 2.2%. The “Efficacy (%)” value (M. incognita [3]; tomato seeds, 1 mg a.i./seed) was 5.8% and the “average rating” value (M. incognita [3]; 1 mg /seed) was 4.3.
`CCOP(=S)(OCC)SCSC(C)(C)C` [Terbufos] was tested, and the “Efficacy (%)” value (M. incognita [2]; [7]) was 0%, the “Efficacy (%)” value (M. incognita [2]; [8]) was 0% and the “Efficacy (%)” value (M. incognita [2]; tomato seeds, 0.1 mg a.i./seed) was 0%. The “Efficacy (%)” value (M. incognita [2]; tomato seeds, 0.3 mg a.i./seed) was 0%, the “Efficacy (%)” value (M. incognita [2]; tomato seeds, 1 mg a.i./seed) was 0% and the “average rating” value (M. incognita [2]; 1 mg /seed) was 4.1.
`CCOP(=O)(SC(C)CC)N1CCSC1=O` (stereo not drawn) [Fosthiazate] was tested, and the “Efficacy (%) at the two-week exposure” value (M. incognita [4]; 0.03 mg a.i./seed) was 0%, the “Efficacy (%) at the four-week exposure” value (M. incognita [4]; 0.03 mg a.i./seed) was 0% and the “Efficacy (%) at the two-week exposure” value (M. incognita [4]; 0.1 mg a.i./seed) was 40%. For the same compound, the “Efficacy (%) at the four-week exposure” value (M. incognita [4]; 0.1 mg a.i./seed) was 0%, the “Efficacy (%) at the two-week exposure” value (M. incognita [4]; 0.3 mg a.i./seed) was 28.6% and the “Efficacy (%) at the four-week exposure” value (M. incognita [4]; 0.3 mg a.i./seed) was 10.9%. For the same compound, the “Efficacy (%) at the two-week exposure” value (M. incognita [4]; 1 mg a.i./seed) was 59% and 59.4%, the “Efficacy (%) at the four-week exposure” value (M. incognita [4]; 1 mg a.i./seed) was 40% and the “average rating” value (M. incognita [4]; [9]) was 1.4. For the same compound, the “average rating” value (M. incognita [4]; [10]) was 1.8 and the “effective … Meloidogyne incognita” value (Meloidogyne spp.) was “effective”.
In the case of `CNC(=O)O/N=C/C(C)(C)SC` [Aldicarb], the “effective … Meloidogyne incognita” value (Meloidogyne spp.) is reported as “effective”, the “Efficacy (%)” value (M. incognita [3]; [8]) is reported as 5.8% and the “Efficacy (%)” value (M. incognita [3]; tomato seeds, 0.1 mg a.i./seed) is reported as 5.8%. The “Efficacy (%)” value (M. incognita [3]; tomato seeds, 0.3 mg a.i./seed) was 11.2%, the “Efficacy (%)” value (M. incognita [3]; tomato seeds, 1 mg a.i./seed) was 16.7% and the “average rating” value (M. incognita [3]; 1 mg /seed) was 3.8.
`CCOP(=S)(OCC)Oc1nc(Cl)c(Cl)cc1Cl` [Chlorpyrifos] was tested, and the “Efficacy (%)” value (M. incognita [2]; [7]) was 0%, the “Efficacy (%)” value (M. incognita [2]; [8]) was 0% and the “Efficacy (%)” value (M. incognita [2]; tomato seeds, 0.1 mg a.i./seed) was 0%. The “Efficacy (%)” value (M. incognita [2]; tomato seeds, 0.3 mg a.i./seed) was 0%, the “Efficacy (%)” value (M. incognita [2]; tomato seeds, 1 mg a.i./seed) was 0% and the “average rating” value (M. incognita [2]; 1 mg /seed) was 4.3.

Source: patent EP1925205A1, “Plant propagation material treatment nematicides” (priority 2006, dated 2008)
